Test results reported in ChEMBL document CHEMBL5053521 (Bioorg Med Chem Lett, 2021).

Tests used:
Histamine H2 receptor [1] = target: T1, Histamine H2 receptor (Homo sapiens, UniProt P25021); assay: Displacement of [3H]UR-DE257 from Gsalphas-coupled human H2R expressed in Sf9 cell membranes by competitive binding assay; parameters: species or system Membrane
Histamine H2 receptor [2] = target: T1, Histamine H2 receptor; assay: Agonist activity at human H2 receptor expressed in HEK293T-ARRB1 cells assessed as stimulation of beta-arrestin 1 recruitment; assay type: functional, cell-based
Histamine H2 receptor [3] = target: T1, Histamine H2 receptor; assay: Agonist activity at human H2 receptor expressed in HEK293T-ARRB1 cells assessed as stimulation of beta-arrestin 1 recruitment by measuring maximum efficacy; assay type: functional, cell-based; details: filed as agonist
Histamine H2 receptor [4] = target: T1, Histamine H2 receptor; assay: Agonist activity at NlucN/mini-Gi protein-fused human H2R stably expressed in HEK293T cells assessed as induction of mini-Gi protein recruitment using furimazine as substrate measured for 45 mins by luminescence assay; assay type: functional, cell-based
Histamine H2 receptor [5] = target: T1, Histamine H2 receptor; assay: Binding affinity to human H2R expressed in HEK293T-qs5-HA cells by flow cytometry analysis; assay type: cell-based
Histamine H2 receptor [6] = target: T1, Histamine H2 receptor; assay: Agonist activity at human H2 receptor expressed in Sf9 cell membranes co-exprssing GsalphaS assessed as stimulation of [35S]GTPgammaS binding incubated for 90 mins by scintillation counting analysis; assay type: functional, Membrane
Histamine H2 receptor [7] = target: T1, Histamine H2 receptor; assay: Agonist activity at human H2 receptor expressed in HEK293T-ARRB2 cells assessed as stimulation of beta-arrestin 2 recruitment; assay type: functional, cell-based

T1 sequence (P25021 whole entry): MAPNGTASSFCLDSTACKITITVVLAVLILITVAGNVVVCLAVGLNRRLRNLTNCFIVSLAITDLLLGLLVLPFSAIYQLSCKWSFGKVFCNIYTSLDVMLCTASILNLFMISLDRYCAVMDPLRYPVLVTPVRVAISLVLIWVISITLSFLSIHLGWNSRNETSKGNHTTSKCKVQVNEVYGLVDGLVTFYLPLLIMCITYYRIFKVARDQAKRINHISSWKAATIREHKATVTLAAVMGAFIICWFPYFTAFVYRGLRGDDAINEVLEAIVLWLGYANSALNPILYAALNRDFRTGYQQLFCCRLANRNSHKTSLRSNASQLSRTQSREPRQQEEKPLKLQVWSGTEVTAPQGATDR

| Compound | Ki (Histamine H2 receptor [1]) [µM] | EC50 (Histamine H2 receptor [2]) [µM] | Emax (Histamine H2 receptor [3]) | EC50 (Histamine H2 receptor [4]) [µM] | Kd (Histamine H2 receptor [5]) [µM] | EC50 (Histamine H2 receptor [6]) [µM] | EC50 (Histamine H2 receptor [7]) [µM] |
| --- | --- | --- | --- | --- | --- | --- | --- |
| CC1(C)C(/C=C/C=C/C=C2\c3ccccc3C(C)(C)N2CCCCCC(=O)NCCCCCCCCNC(=O)/N=C(\N)NCCCc2nnc(N)s2)=[N+](CCCCS(=O)(=O)[O-])c2ccccc21 | 0.263 | 0.339 | 0.55 | 0.257 | 0.112 | 0.1 | 0.0646 |
| CC1(C)C(/C=C/C=C/C=C2\c3ccccc3C(C)(C)N2CCCCCC(=O)NCCCCCCCCNC(=O)/N=C(\N)NCCCc2c[nH]cn2)=[N+](CCCCS(=O)(=O)[O-])c2ccccc21 | 0.0661 | 0.427 | 0.25 | 0.339 | 0.0562 | 0.12 | 0.115 |
| Cc1nc(N)sc1CCCN/C(N)=N/C(=O)NCCCCCCCCNC(=O)CCCCCN1/C(=C/C=C/C=C/C2=[N+](CCCCS(=O)(=O)O)c3ccccc3C2(C)C)c2cc(S(=O)(=O)[O-])ccc2C1(C)C | 0.263 | – | – | 0.759 | > 1 | 1.29 | – |
| Cc1nc(N)sc1CCCN/C(N)=N/C(=O)NCCCCCCCCCCNC(=O)CCCCCN1/C(=C/C=C/C=C/C2=[N+](CCCCS(=O)(=O)O)c3ccccc3C2(C)C)c2cc(S(=O)(=O)[O-])ccc2C1(C)C | > 1 | – | – | 2.04 | – | 2.4 | – |
| NCCc1c[nH]cn1 | – | – | 1 | – | – | – | – |
| Cc1nc(N)sc1CCCN/C(N)=N/C(=O)NCCCCCCCCNC(=O)CCCCCN1/C(=C/C=C/C=C/C2=[N+](CCCCS(=O)(=O)[O-])c3ccccc3C2(C)C)c2ccccc2C1(C)C | 0.562 | 0.617 | 0.09 | 1.1 | 0.0708 | 0.339 | 0.129 |
| Cc1nc(N)sc1CCCN/C(N)=N/C(=O)NCCCCCCNC(=O)CCCCCN1/C(=C/C=C/C=C/C2=[N+](C)c3ccccc3C2(C)C)c2ccccc2C1(C)C | 0.0219 | 0.513 | 0.57 | 0.501 | 0.033 | 0.186 | 0.191 |
| Cc1nc(N)sc1CCCN/C(N)=N/C(=O)NCCCCCCNC(=O)CCCCCN1/C(=C/C=C/C=C/C2=[N+](CCCCS(=O)(=O)[O-])c3ccccc3C2(C)C)c2ccccc2C1(C)C | 0.251 | – | – | 3.89 | 1 | 0.562 | – |
| Cc1nc(N)sc1CCCN/C(N)=N/C(=O)NCCCCCCCCNC(=O)CCCCCNC(=O)COc1ccc(/C=C/C2=[N+]3C(=Cc4ccc(-c5cccs5)n4[B-]3(F)F)C=C2)cc1 | 0.0301 | – | – | – | 0.0813 | 0.0724 | – |
| Cc1nc(N)sc1CCCN/C(N)=N/C(=O)NCCCCCCCCCCNC(=O)CCCCCN1/C(=C/C=C/C=C/C2=[N+](CCCCS(=O)(=O)[O-])c3ccccc3C2(C)C)c2ccccc2C1(C)C | 0.0955 | – | – | 1.45 | 0.229 | 0.676 | – |
